Results as given in US20210300940A1 (Merck Patent GmbH, priority 2018, published 2021).
pIC50: −log10 of the molar value.

Key:
TLR8 = molecular target: T1, TLR8 (Homo sapiens, UniProt Q9NR97); test: HEK/293 TLR8 Cell Assay; type: cell-based; details: HEK cells, R848 agonist 30 uM final concentration, Steady-Glo readout; read-out: TLR8 potency
T1 construct: expressed in transfected cells; host or cells: HEK/293 reporter cells (NF-kB luciferase)
T1 sequence (Q9NR97 27-1041): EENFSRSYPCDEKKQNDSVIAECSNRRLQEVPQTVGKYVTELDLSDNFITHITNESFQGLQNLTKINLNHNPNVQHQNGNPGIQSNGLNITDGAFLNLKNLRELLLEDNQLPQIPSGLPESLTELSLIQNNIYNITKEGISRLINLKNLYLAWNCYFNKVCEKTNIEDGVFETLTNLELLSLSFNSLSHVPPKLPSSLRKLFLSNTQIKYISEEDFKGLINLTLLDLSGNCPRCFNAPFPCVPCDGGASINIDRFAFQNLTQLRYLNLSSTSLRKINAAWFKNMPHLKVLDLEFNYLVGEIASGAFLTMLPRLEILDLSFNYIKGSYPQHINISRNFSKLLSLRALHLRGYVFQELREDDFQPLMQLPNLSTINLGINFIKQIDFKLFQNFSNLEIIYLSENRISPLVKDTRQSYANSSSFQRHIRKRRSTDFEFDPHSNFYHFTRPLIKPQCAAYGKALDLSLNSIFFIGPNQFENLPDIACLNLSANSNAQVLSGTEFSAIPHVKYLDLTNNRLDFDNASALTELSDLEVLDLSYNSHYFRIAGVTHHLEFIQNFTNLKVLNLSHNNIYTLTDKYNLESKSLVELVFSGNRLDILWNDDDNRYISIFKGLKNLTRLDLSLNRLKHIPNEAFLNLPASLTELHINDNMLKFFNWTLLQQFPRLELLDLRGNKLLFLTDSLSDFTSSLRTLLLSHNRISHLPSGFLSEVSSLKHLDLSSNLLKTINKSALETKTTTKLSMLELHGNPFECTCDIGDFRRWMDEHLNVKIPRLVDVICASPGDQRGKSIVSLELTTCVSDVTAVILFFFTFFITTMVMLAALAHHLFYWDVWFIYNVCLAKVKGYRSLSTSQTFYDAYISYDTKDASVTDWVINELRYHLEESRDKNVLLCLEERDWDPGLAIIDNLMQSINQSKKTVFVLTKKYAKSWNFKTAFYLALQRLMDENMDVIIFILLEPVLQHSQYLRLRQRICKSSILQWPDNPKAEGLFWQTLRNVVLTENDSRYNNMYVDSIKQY

TLR7 = molecular target: T2, TLR7 (Homo sapiens, UniProt Q9NYK1); test: HEK/293 TLR7 Cell Assay; type: cell-based; details: TLR7/NFKb HEK cells, R848 agonist 10 uM final concentration, Steady-Glo readout; read-out: TLR7 potency
T2 construct: expressed in transfected cells; host or cells: HEK/293 cells carrying TLR7 and an NF-kB luciferase reporter
T2 sequence (Q9NYK1 27-1049): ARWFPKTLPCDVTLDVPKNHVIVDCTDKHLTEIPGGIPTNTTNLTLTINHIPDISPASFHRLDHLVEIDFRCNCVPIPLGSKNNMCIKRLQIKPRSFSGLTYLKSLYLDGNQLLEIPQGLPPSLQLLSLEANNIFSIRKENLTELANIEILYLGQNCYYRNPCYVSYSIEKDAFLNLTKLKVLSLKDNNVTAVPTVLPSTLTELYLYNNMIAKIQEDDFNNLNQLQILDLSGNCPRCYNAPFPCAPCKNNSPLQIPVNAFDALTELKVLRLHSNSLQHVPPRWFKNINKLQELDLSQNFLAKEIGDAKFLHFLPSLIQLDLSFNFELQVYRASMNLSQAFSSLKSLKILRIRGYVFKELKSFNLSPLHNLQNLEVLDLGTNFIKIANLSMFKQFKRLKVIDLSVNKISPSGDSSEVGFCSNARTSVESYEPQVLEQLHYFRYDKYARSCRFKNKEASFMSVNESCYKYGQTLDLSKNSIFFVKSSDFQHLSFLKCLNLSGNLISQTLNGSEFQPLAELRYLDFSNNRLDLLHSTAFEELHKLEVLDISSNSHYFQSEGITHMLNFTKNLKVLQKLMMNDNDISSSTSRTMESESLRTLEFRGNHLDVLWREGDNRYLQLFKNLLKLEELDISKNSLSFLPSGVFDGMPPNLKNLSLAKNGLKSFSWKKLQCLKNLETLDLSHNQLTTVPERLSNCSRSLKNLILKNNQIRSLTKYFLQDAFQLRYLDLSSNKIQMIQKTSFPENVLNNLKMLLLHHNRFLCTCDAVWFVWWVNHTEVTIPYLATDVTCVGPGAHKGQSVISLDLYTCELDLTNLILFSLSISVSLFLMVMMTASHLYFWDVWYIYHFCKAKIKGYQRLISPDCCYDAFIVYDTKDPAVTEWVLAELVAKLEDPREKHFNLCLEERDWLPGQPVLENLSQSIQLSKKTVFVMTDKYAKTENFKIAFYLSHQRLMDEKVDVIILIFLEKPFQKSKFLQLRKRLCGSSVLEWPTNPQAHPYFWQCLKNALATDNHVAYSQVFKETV
Method in brief: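 TLR7/NF-κB reporter HEK293 cells, 5000/well, cultured 24 h, then preincubated 30 min with compound before R848 agonist (10 uM final). After 5 h stimulation, Steady-Glo luciferase luminescence read.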

pIC50 (TLR8)	pIC50 (TLR7)	SMILES
> 7.12	6.82 to 7.12	COc1ncc(N2C[C@@H](C)C[C@@H](N)C2)c2nccnc12 [Example 199, (3R,5S)-1-(5-Methoxy-pyrido[3,4-b]pyrazin-8-yl)-5-methyl-piperidin-3-ylamine]
> 7.12	> 7.12	C[C@H]1C[C@@H](NC(=O)[C@H](C)N2CCN(C)CC2)CN(c2ccc(C#N)c3nccnc23)C1 (single isomer, unassigned) [Example 91]
6.82 to 7.12	> 7.12	CN1CCC(F)(CC(=O)N[C@@H]2C[C@H](C(F)(F)F)CN(c3ccc(C#N)c4ncncc34)C2)CC1 [Example 71, N-[(3R,5S)-1-(8-cyanoquinazolin-5-yl)-5-(trifluoromethyl)piperidin-3-yl]-2-(4-fluoro-1-methylpiperidin-4-yl)acetamide]
< 6.82	> 7.12	C[C@@H]1CN(c2ccc(C#N)c3nccnc23)C[C@H](C(=O)NCCN2CCS(=O)(=O)CC2)O1 [Example 239, (2R,6R)-4-(8-Cyano-quinoxalin-5-yl)-6-methyl-morpholine-2-carboxylic acid [2-(1,1-dioxo-1lambda6-thiomorpholin-4-yl)-ethyl]-amide]
< 6.82	< 6.82	CCOc1ncc(N2C[C@H](N)C[C@H](C(F)(F)F)C2)c2cccnc12 [Example 10, (3R,5S)-1-(8-Ethoxy-[1,7]naphthyridin-5-yl)-5-trifluoromethyl-piperidin-3-ylamine]
> 7.12	> 7.12	C[C@H]1C[C@@H](NC(=O)C[C@H]2[C@@H]3C[C@H]2CN(C)C3)CN(c2ccc(C(F)(F)F)c3ncccc23)C1 [Example 106, N-[(3R,5S)-5-methyl-1-[8-(trifluoromethyl)quinolin-5-yl]piperidin-3-yl]-2-[(1R,5S,6s)-3-methyl-3-azabicyclo[3.1.1]heptan-6-yl]acetamide]
> 7.12	> 7.12	C[C@@H](C(=O)N[C@@H]1C[C@H](C(F)(F)F)CN(c2ccc(C#N)c3ncccc23)C1)N1CCN(C)CC1 (single isomer, unassigned) [Example 101]
> 7.12	> 7.12	C[C@H]1C[C@@H](NC(=O)CCN(C)C)CN(c2ccc(C(F)(F)F)c3nccnc23)C1 [Example 78]
6.82 to 7.12	> 7.12	CC(=O)NCCN[C@@H]1C[C@H](C(F)(F)F)CN(c2ccc(C#N)c3ncccc23)C1 [Example 44, N-{2-[(3R,5S)-1-(8-Cyano-quinolin-5-yl)-5-trifluoromethyl-piperidin-3-ylamino]-ethyl}-acetamide]
< 6.82	6.82 to 7.12	CN1CCC(O)(CC(=O)N[C@@H]2C[C@H](C(F)(F)F)CN(c3ccc(C#N)c4ncccc34)C2)CC1 [Example 73, N-[(3R,5S)-1-(8-cyanoquinolin-5-yl)-5-(trifluoromethyl)piperidin-3-yl]-2-(4-hydroxy-1-methylpiperidin-4-yl)acetamide]
< 6.82	< 6.82	C[C@@H]1CN(c2cnc(C#N)c3ncccc23)C[C@H](CN2CCN(S(N)(=O)=O)CC2)O1 [Example 382, 4-{[(2S,6R)-4-(8-cyano-1,7-naphthyridin-5-yl)-6-methylmorpholin-2-yl]methyl}piperazine-1-sulfonamide]
< 6.82	> 7.12	C[C@H]1C[C@@H](NC(=O)CN2CCN(C)CC2)CN(c2ccc(C#N)c3ncncc23)C1 [Example 89, N-[(3R,5S)-1-(8-cyanoquinazolin-5-yl)-5-methylpiperidin-3-yl]-2-(4-methylpiperazin-1-yl)acetamide]
> 7.12	6.82 to 7.12	CN(C)CCNC(=O)N[C@@H]1C[C@H](C(F)(F)F)CN(c2ccc(C(F)(F)F)c3ncccc23)C1 [Example 144, 3-[2-(dimethylamino)ethyl]-1-[(3R,5S)-5-(trifluoromethyl)-1-[8-(trifluoromethyl)quinolin-5-yl]piperidin-3-yl]urea]
> 7.12	> 7.12	N#Cc1ccc(N2C[C@H](N)CC(F)(F)C2)c2cccnc12 (single isomer, unassigned) [Example 197]
< 6.82	< 6.82	C[C@@H]1CN(c2ccc(C#N)c3nccnc23)C[C@H](C(=O)N2CC3(C2)CS(=O)(=O)C3)O1 [Example 251, 8-[(2R,6R)-2-(2,2-Dioxo-2lambda6-thia-6-aza-spiro[3.3]heptane-6-carbonyl)-6-methyl-morpholin-4-yl]-quinoxaline-5-carbonitrile]

SMILES	pIC50 (TLR8)	pIC50 (TLR7)
C[C@H]1C[C@@H](NC(=O)CN(CCN)CCO)CN(c2ccc(C#N)c3nccnc23)C1 [Example 150, 2-[(2-Amino-ethyl)-(2-hydroxy-ethyl)-amino]-N-[(3R,5S)-1-(8-cyano-quinoxalin-5-yl)-5-methyl-piperidin-3-yl]-acetamide]	> 7.12	> 7.12
C[C@H]1C[C@@H](NC(=O)CCN2CCOCC2)CN(c2ccc(C#N)c3nccnc23)C1 [Example 194, N-[(3R,5S)-1-(8-Cyano-quinoxalin-5-yl)-5-methyl-piperidin-3-yl]-3-morpholin-4-yl-propionamide]	> 7.12	6.82 to 7.12
COCC(O)CNC(=O)[C@H]1CN(c2ccc(C#N)c3nccnc23)C[C@@H](C)O1 (stereo partly drawn) [Example 252, (2R,6R)-4-(8-Cyano-quinoxalin-5-yl)-6-methyl-morpholine-2-carboxylic acid (2-hydroxy-3-methoxy-propyl)-amide]	> 7.12	6.82 to 7.12
N#Cc1ccc(N2C[C@@H](C(F)(F)F)O[C@@H](C(=O)N[C@H]3CNC[C@H]3F)C2)c2nccnc12 (single isomer, unassigned) [Example 303]	> 7.12	> 7.12
C[C@@H]1CN(c2ccc(C#N)c3nccnc23)C[C@H](C(=O)NC2CCN(CC3CC3)C2)O1 (stereo partly drawn) [Example 241, (2R,6R)-4-(8-Cyano-quinoxalin-5-yl)-6-methyl-morpholine-2-carboxylic acid (1-cyclopropylmethyl-pyrrolidin-3-yl)-amide]	> 7.12	> 7.12
CCN(C)CCNC(=O)[C@H]1CN(c2ccc(C#N)c3nccnc23)C[C@@H](C)O1 [Example 244, (2R,6R)-4-(8-Cyano-quinoxalin-5-yl)-6-methyl-morpholine-2-carboxylic acid [2-(ethyl-methyl-amino)-ethyl]-amide]	> 7.12	> 7.12
N#Cc1ccc(N2C[C@@H](C(F)(F)F)O[C@@H](C(=O)NC[C@]3(F)CCNC3)C2)c2cccnc12 (single isomer, unassigned) [Example 314]	< 6.82	< 6.82
